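Briefly, cells in 96-well plates were exposed to five compound concentrations for 48 h, and endpoints were estimated by linear interpolation. The concentration for 50% growth inhibition is given as GI50.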 Calls of active or inactive are those of the source. Cut-off read from the data, not from the text of the source: active = GI50 up to about 1.1 µM and inactive = higher.
Key:
Assay in all cases: NCI anticancer screen, dose series, 48 h
[1] = system: SF-295
[2] = system: UO-31
[3] = system: KM12
[4] = system: OVCAR-8
[5] = system: UACC-257
[6] = system: 786-0
[7] = system: DMS-273
[8] = system: DLD-1
[9] = system: IGROV-1
[10] = system: NCI-H226
[11] = system: SR
[12] = system: Malme-3M
[13] = system: LOX IMVI
[14] = system: HT-29
[15] = system: HOP-62
[16] = system: M14
[17] = system: SK-MEL-2
[18] = system: OVCAR-5
[19] = system: HOP-18
[20] = system: HOP-92
[21] = system: SW-620
[22] = system: A549
[23] = system: SK-MEL-28
[24] = system: SF-539
[25] = system: LXFL 529
[26] = system: SN12C
[27] = system: UACC-62
[28] = system: K562
[29] = system: HCT-15
[30] = system: SNB-75
[31] = system: DMS-114
[32] = system: MOLT-4
[33] = system: SK-OV-3
[34] = system: NCI-H522
[35] = system: RXF 393
[36] = system: SF-268
[37] = system: ACHN
[38] = system: U-251
[39] = system: NCI-H460
[40] = system: HCT-116
[41] = system: SK-MEL-5
[42] = system: RPMI-8226
[43] = system: M19-MEL
[44] = system: NCI-H23
[45] = system: SNB-78
[46] = system: TK-10
[47] = system: CAKI-1
[48] = system: COLO 205
[49] = system: OVCAR-4

In the case of `C=CC(Br)(CBr)CCC(Br)C(C)(C)Br` (centres undefined), the GI50 [1] is reported as 4.42 µM (inactive), the GI50 [2] is reported as 15.2 µM (inactive) and the GI50 [3] is reported as 9.14 µM (inactive). The GI50 [4] was 15.7 µM (inactive), the GI50 [5] was 13.9 µM (inactive) and the GI50 [6] was 12.9 µM (inactive). The GI50 [7] was 10.7 µM (inactive), the GI50 [8] was 17.2 µM (inactive) and the GI50 [9] was 15.2 µM (inactive). For the same molecule, the GI50 [10] was 18.1 µM (inactive), the GI50 [11] was 3.81 µM (inactive) and the GI50 [12] was 16.6 µM (inactive). For the same molecule, the GI50 [13] was 12.4 µM (inactive), the GI50 [14] was 13.2 µM (inactive) and the GI50 [15] was 21 µM (inactive). The GI50 [16] was 15 µM (inactive), the GI50 [17] was 13.6 µM (inactive) and the GI50 [18] was 18.5 µM (inactive). The GI50 [19] was 15.5 µM (inactive), the GI50 [20] was 15.7 µM (inactive) and the GI50 [21] was 13.7 µM (inactive). For the same molecule, the GI50 [22] was 14.6 µM (inactive), the GI50 [23] was 15.9 µM (inactive) and the GI50 [24] was 15.9 µM (inactive). For the same molecule, the GI50 [25] was 14.5 µM (inactive), the GI50 [26] was 15.6 µM (inactive) and the GI50 [27] was 12 µM (inactive). The GI50 [28] was 17.3 µM (inactive), the GI50 [29] was 16.5 µM and the GI50 [30] was 10.3 µM (inactive). The GI50 [31] was 11.6 µM (inactive), the GI50 [32] was 9.51 µM (inactive) and the GI50 [33] was 19.4 µM (inactive). For the same molecule, the GI50 [34] was 15.8 µM (inactive), the GI50 [35] was 14.7 µM (inactive) and the GI50 [36] was 17.1 µM (inactive). The GI50 [37] was 12.7 µM (inactive), the GI50 [38] was 14.2 µM (inactive) and the GI50 [39] was 10.4 µM (inactive). For the same molecule, the GI50 [40] was 14.5 µM (inactive), the GI50 [41] was 14.5 µM (inactive) and the GI50 [42] was 2.79 µM (inactive). For the same molecule, the GI50 [43] was 14.3 µM (inactive), the GI50 [44] was 15.7 µM (inactive) and the GI50 [45] was 5.56 µM (inactive). For the same molecule, the GI50 [46] was 16.4 µM (inactive), the GI50 [47] was 22.8 µM (inactive) and the GI50 [48] was 15 µM (inactive). For the same molecule, the GI50 [49] was 17.1 µM (inactive).
